Values belong to the compound of their own block, whether it stands above or below them.
What was measured:
human bone sarcoma U2OS = experiment: MTT assay, U2OS; format: cell-based; conditions: 72-h incubation
Description: (§1) Human colon carcinoma HT29, human breast carcinoma MCF7, human bone sarcoma U2OS, human prostate carcinoma PC3, and human cervix carcinoma HeLa cells were obtained from the ATCC. A2780/CP70 cisplatin-resistant human ovarian cancer cells were kindly provided by Dr. Stephen B. Howell (Moores UCSD Cancer Center) and the human lung carcinoma cell lines A549 and normal lung fibroblast MRC5 by David E. Root (Whitehead Institute for Biomedical Research). Cells were incubated at 37° C. in 5% CO2 and grown in RPMI (HT29, A2780/CP70, and PC3) or DMEM (A549, MRC5, HeLa, MCF7, and U2OS) medium supplemented with 10% fetal bovine serum and 1% penicillin/streptomycin. Cells were passed every 3 to 4 days and restarted from a frozen stock upon reaching pass number 20.
(§2) Solutions of the platinum compounds were freshly prepared in sterile PBS before use and their concentrations quantitated by atomic absorption spectroscopy. […] The cells were then treated with 20 μL of 3-(4,5-dimethylthiazol-2-yl)-2,5-diphenyltetrazolium bromide (MTT) (5 mg/mL in PBS) and incubated for 4 h. The medium was removed, 100 μL of DMSO was added to the cells, and the absorbance of the purple formazan was recorded at 560 nm using a BioTek Synergy HT multi-detection microplate plate reader. Each condition was performed in triplicate and three independent experiments were carried out for each cell line.

NTera2 = experiment: MTT assay, NTera2; format: cell-based, human; conditions: Table 3, NTera2 Testis, 72-h incubation
Description: (§6) Solutions of the platinum compounds were freshly prepared in sterile PBS before use and their concentrations quantitated by atomic absorption spectroscopy. Cells were seeded on a 96-well plate (1200 cells per well for cancer cells and 1800 cells per well for the normal lung fibroblasts) in 100 μL RPMI or DMEM media, and incubated for 24 h. […] The cells were then treated with 20 μL of 3-(4,5-dimethylthiazol-2-yl)-2,5-diphenyltetrazolium bromide (MTT) (5 mg/mL in PBS) and incubated for 4 h. The medium was removed, 100 μL of DMSO was added to the cells, and the absorbance of the purple formazan was recorded at 560 nm using a BioTek Synergy HT multi-detection microplate plate reader. Each condition was performed in triplicate and three independent experiments were carried out for each cell line.

[1] = system: Human colon carcinoma HT29; experiment: MTT assay, HT29; format: cell-based
Description: as §1, §2

[2] = system: human prostate carcinoma PC3; experiment: MTT assay, PC3; format: cell-based; conditions: Table 3, PC3 Prostate, 72-h incubation
Description: as §6
(§7) Human prostate carcinoma (PC3) and human cervix carcinoma (HeLa) cells were obtained from the ATCC. The human lung carcinoma cell line A549 was kindly provided by David E. Root (Whitehead Institute for Biomedical Research). Cells were incubated at 37° C. in 5% CO2 and grown in RPMI (PC3) or DMEM (A549 and HeLa) medium supplemented with 10% fetal bovine serum and 1% penicillin/streptomycin. Cells were passaged every 3 to 4 days and restarted from the frozen stock upon reaching passage number 20.
(§8) Solutions of the platinum agents were freshly prepared in sterile PBS before use and the platinum content was quantitated by AAS. Cells were seeded on 96 well plates (1200 cells per well) in 100 μL RPMI or DMEM media\ and incubated for 24 hours. […] The cells were then treated with 20 μL of 3-(4,5-dimethylthiazol-2-yl)-2,5-diphenyltetrazolium bromide (MTT) (5 mg/mL in PBS) and incubated for 4 h. The medium was removed, 100 μL of DMSO were added to the cells, and the absorbance of the purple formazan was recorded at 570 nm using a BioTek Synergy HT multi-detection microplate plate reader. For each cell line, three independent experiments were carried out in triplicate.

[3] = system: human cervix carcinoma HeLa cells; experiment: MTT assay, HeLa; format: cell-based; conditions: 72-h incubation
Description: as §6, §7, §8

[4] = system: human lung carcinoma A549; experiment: MTT assay, A549; format: cell-based
Description: as §6, §7, §8

[5] = system: human breast carcinoma MCF7; experiment: MTT assay, MCF7; format: cell-based; conditions: Table 3, MCF7 Breast, 72-h incubation
Description: as §1, §2

[6] = equimolar N-AcMet, 37° C.
Description: NMR spectra were collected on a Varian 500 spectrometer equipped with a triple-resonance broadband inverse probe and a variable temperature unit. The 1-D ^1H NMR kinetic studies were performed in duplicate as a standard time-arrayed experiment using a variable delayed list. Incremented 1-D spectra were processed in exactly the same way and signals of aromatic amine ligands from platinum compounds were integrated. The relative concentrations of the platinum compound at each time point were calculated from peak integrals. […] Reactions of platinum compounds with N-AcMet were performed in NMR tubes containing 2 mM of the Pt complex and 2 mM (1 equiv) of N-AcMet in 10 mM PBS buffer, D2O, pH*7.4 at 37° C. […] Deuterated 3-(trimethylsilyl)propionic acid sodium salt (TMS-PFASS) was used as an internal standard. The pH* values are the measured pH values without correction for the effect of deuterium on the electrode.

[7] = D2O at 37° C.
Description: (§9) The 1-D ^1H NMR kinetic studies were performed in duplicate as a standard time-arrayed experiment using a variable delayed list. Incremented 1-D spectra were processed in exactly the same way and signals of aromatic amine ligands from platinum compounds were integrated. The relative concentrations of the platinum compound at each time point were calculated from peak integrals. […] Reactions of platinum compounds with 5′-dGMP were performed in NMR tubes containing 2 mM of the platinum compounds and 32 mM (16 equiv) of 5′-dGMP in 10 mM PBS buffer, D2O, pH*7.4 at 37° C.

pGLuc plasmid = experiment: Platination of pGLuc plasmid; format: biochemical
Description: The resulting mixtures were dialyzed (molecular weight cut-off 3.5 kDa) against ddH2O overnight at 4° C. with five changes of ddH2O. The rb values (bound Pt/nucleotide) were determined by UV/Vis and atomic absorption spectroscopy.
In one embodiment, the ratio of bound platinum per plasmid was determined by measuring the Pt concentration by atomic absorption spectroscopy and the DNA concentration by UV/Vis spectroscopy.

calf thymus DNA = experiment: Ethidium bromide DNA-binding competition, Scatchard analysis; set-up: key: competitive (type A); non-competitive (type D); both (type B); No inhibition of ethidium binding is labeled as type C
Description: Using this approach, it is possible to determine whether the inhibition of ethidium binding is competitive (type A), non-competitive (type D), or both (type B). No inhibition of ethidium binding is labeled as type C.

[8] = system: GLuc expression in HT29 cells; experiment: Transcription assay, globally platinated pGLuc, HT29; format: cell-based, human; conditions: for transcription level (normalized against unplatinated plasmid): Pt/DNA ratio of […] for phenanthriplatin
Description: (§3) Transfection of transcription probes into A549 and HT29 cells with the pGLuc plasmid was carried out using liposomal transfecting agents. Determination of expression levels was tested by Luciferase assays monitored by a luminometer (J. Am. Chem. Soc. 2010, 132, 7429-7435). A549 cells were plated in 96-well plates at 2,000 cells/well and HT29 cells were plated in 96-well plates at 6,000 cells/well. After 48 h incubation (at ˜30% confluence), cells were transfected with 50 ng of platinated plasmids in 25 μL Opti-MEM and 0.125 μL Lipofectamine 2000, and subsequently 50 μL of antibiotics-free DMEM supplemented with 10% FBS. After 2 h, the cells were washed with medium and 100 μL of fresh medium was added. The experiment was carried out in quadruplicate.
(§4) GLuc activity was monitored using a luminescence plate reader (Synergy 2, BioTek, Winooski, Vt., USA). A 10 μL volume of medium at different time points (12, 24, 36, 48, 60 h) was transferred into opaque white 96-well plates, and 25 μL of GLuc assay solution (10 μM colelenterazine (NanoLight Technologies, Pinetop, Ariz., USA) in 2.5 mM acidified methanol (100 mM HCl), buffer (10 mM Tris-HCl pH 7.8, 1 mM EDTA, 0.6 M NaCl)) was added by the automatic injector of the instrument.
(§5) In another embodiment, A549 or HT29 cells were transfected using the platinated transcription probes, and transcription levels were investigated by determining GLuc expression as measured by […] following addition of coelenterazine as a substrate for the exported enzyme. The emission intensities were normalized against unplatinated plasmids as a control. Transcription profiles were obtained by plotting normalized levels of GLuc expression against platination levels (Pt/plasmid ratio) at five different time points. […] An increase in D0 value at different time points represents restoration of transcription.

5′-dGMP = conditions: 16 equiv 5′-dGMP, 37° C., PBS pH 7.4
Description: as §9

[9] = system: GLuc expression in A549 cells; experiment: Transcription assay, globally platinated pGLuc, A549; format: cell-based, human; conditions: for transcription level (normalized against unplatinated plasmid): Pt/DNA ratio of […] for phenanthriplatin
Description: as §3, §4, §5

[10] = system: normal lung fibroblast MRC5; experiment: MTT assay, MRC5; format: cell-based, human
Description: as §1, §2

[11] = Table 3, HT29 Colorectal, 72-h incubation
[12] = Table 3, A549 Lung, 72-h incubation
[13] = Table 4, A549 human lung carcinoma, 72 h incubation

Compound: O=C1[O][Pt]2([NH][C@@H]3CCCC[C@H]3[NH]2)[O]C1=O [oxaliplatin]
IC50 (human bone sarcoma U2OS; Table 3, U2OS Bone): 8.67 ± 0.59 µM | IC50 (NTera2): 1.12 ± 0.08 µM | IC50 [1, 11]: 1.81 ± 1.15 µM | IC50 [2]: 13.2 ± 4 µM | IC50 ([3]; Table 3, HeLa Cervix): 11.8 ± 1.4 µM | IC50 [4, 12]: 6.79 ± 0.26 µM | IC50 [4, 13]: 10.5 ± 0.18 µM | IC50 [5]: 17.9 ± 2.7 µM

Compound: N.N.O=[N+]([O-])[O-].[Cl][Pt+].c1ccncc1 [pyriplatin, cis-[Pt(NH3)2(pyridine)Cl]NO3]
reaction with N-AcMet more rapid than that for phenanthriplatin [6]: > 10 fold | second-order rate constant, reaction with N-AcMet [6]: 0.156 M⁻¹ s⁻¹ | IC50 (human bone sarcoma U2OS; Table 3, U2OS Bone): 78.9 ± 6.7 µM | IC50 (human bone sarcoma U2OS; Table 5, U2OS): 78.9 ± 6.7 µM | equilibrium constant for aquation [7]: approximately 0.05 | time after which aquation reaction is complete (equilibrium with aqua analogue) [7]: 1 h | IC50 (NTera2): 5.16 ± 0.96 µM | Pt per plasmid (pGLuc plasmid; rf 0.0016, 16 h at 37° C.): 13.33 Pt per plasmid | rb (bound Pt/nucleotide) (pGLuc plasmid; rf 0.0016, 16 h at 37° C.): 0.0017 | Pt per plasmid (pGLuc plasmid; rf 0.004, 16 h at 37° C.): 31.19 Pt per plasmid | rb (bound Pt/nucleotide) (pGLuc plasmid; rf 0.004, 16 h at 37° C.): 0.0039 | Pt per plasmid (pGLuc plasmid; rf 0.0076, 16 h at 37° C.): 57.96 Pt per plasmid | rb (bound Pt/nucleotide) (pGLuc plasmid; rf 0.0076, 16 h at 37° C.): 0.0073 | Pt per plasmid (pGLuc plasmid; rf 0.015, 16 h at 37° C.): 117.31 Pt per plasmid | rb (bound Pt/nucleotide) (pGLuc plasmid; rf 0.015, 16 h at 37° C.): 0.0015 | type of inhibition of ethidium binding (Scatchard) (calf thymus DNA; 12-h incubation period): type C | type of inhibition of ethidium binding (Scatchard) (calf thymus DNA; 1 min incubation period): type C | transcription level (normalized against unplatinated plasmid) ([8]; HT29, 12 h): 55.3% | D0 (Pt lesions per plasmid required to reduce transcription levels to 37% of control) ([8]; HT29, 12 h after transfection): 35.6 Pt/plasmid | D0 (Pt lesions per plasmid required to reduce transcription levels to 37% of control) ([8]; HT29, 24 h after transfection): 40.5 Pt/plasmid | D0 (Pt lesions per plasmid required to reduce transcription levels to 37% of control) ([8]; HT29, 36 h after transfection): 42.9 Pt/plasmid | D0 (Pt lesions per plasmid required to reduce transcription levels to 37% of control) ([8]; HT29, 48 h after transfection): 44.5 Pt/plasmid | transcription level (normalized against unplatinated plasmid) ([8]; HT29, 60 h): 75.2% | D0 (Pt lesions per plasmid required to reduce transcription levels to 37% of control) ([8]; HT29, 60 h after transfection): 49.3 Pt/plasmid | IC50 [1, 11]: 144 ± 10 µM | IC50 ([1]; Table 5, HT29, 72-h incubation): 144 ± 10 µM | pseudo-first order rate constant, reaction with 5′-dGMP (5′-dGMP): 0.29 h⁻¹ | transcription level (normalized against unplatinated plasmid) ([9]; A549, 12 h): 55.2% | D0 (Pt lesions per plasmid required to reduce transcription levels to 37% of control) ([9]; A549, 12 h after transfection): 39.2 Pt/plasmid | D0 (Pt lesions per plasmid required to reduce transcription levels to 37% of control) ([9]; A549, 24 h after transfection): 58.5 Pt/plasmid | D0 (Pt lesions per plasmid required to reduce transcription levels to 37% of control) ([9]; A549, 36 h after transfection): 68.8 Pt/plasmid | D0 (Pt lesions per plasmid required to reduce transcription levels to 37% of control) ([9]; A549, 48 h after transfection): 85.2 Pt/plasmid | transcription level (normalized against unplatinated plasmid) ([9]; A549, 60 h): 66.8% | D0 (Pt lesions per plasmid required to reduce transcription levels to 37% of control) ([9]; A549, 60 h after transfection): 89.1 Pt/plasmid | IC50 [2]: 47.9 ± 9.2 µM | IC50 ([3]; Table 3, HeLa Cervix): 31.3 ± 2.8 µM | IC50 ([3]; Table 5, HeLa): 31.3 ± 2.8 µM | IC50 ([10]; Table 4, MRC5 normal lung fibroblast, 72 h incubation): 92.1 ± 9.9 µM | IC50 ([10]; Table 5, MRC5, 72-h incubation): 92.1 ± 9.9 µM | IC50 [4, 12]: 52.1 ± 2.3 µM | IC50 [4, 13]: 52.1 ± 2.25 µM | IC50 ([4]; Table 5, A549, 72-h incubation): 52.1 ± 2.3 µM | IC50 [5]: 109 ± 10 µM

IC50 ([1]; Table 5, HT29, 72-h incubation): 53.4 ± 8.5 µM | IC50 ([4]; Table 5, A549, 72-h incubation): 62 ± 0.8 µM
Compound: cis-[Pt(NH3)2 (1-methylimidazole)-Cl]NO3
IC50 ([10]; Table 5, MRC5, 72-h incubation): 40.5 ± 1.1 µM

IC50 ([1]; Table 5, HT29, 72-h incubation): 63.8 ± 1.9 µM | IC50 ([4]; Table 5, A549, 72-h incubation): 50.6 ± 1.7 µM
Compound: cis-[Pt(NH3)2 (2-methylpyridine)Cl]NO3
IC50 ([10]; Table 5, MRC5, 72-h incubation): 58.9 ± 4.2 µM

IC50 (human bone sarcoma U2OS; Table 5, U2OS): 23.5 ± 2.7 µM | IC50 ([1]; Table 5, HT29, 72-h incubation): 38 ± 4.5 µM | IC50 ([3]; Table 5, HeLa): 12.2 ± 0.8 µM | IC50 ([4]; Table 5, A549, 72-h incubation): 8.11 ± 0.68 µM
Compound: cis-[Pt(NH3)2(quinoline)Cl]NO3
IC50 ([10]; Table 5, MRC5, 72-h incubation): 23.5 ± 1.6 µM

Source: patent publication US9034862B2, “Compositions and methods for the treatment of cancer” (priority 2011, dated 2015)
